Experimental data: US20140005163A1 (NOVARTIS AG, priority 2010, published 2014)

Experiments:
[1] = biological target: T1, PI3K alpha (Homo sapiens, UniProt P42336); experiment: PI3K alpha kinase assay (Kinase-Glo luminescence); format: biochemical
T1 construct: p85(iSH2) fusion partner (see partner chain) (N); His tag (C); made in house; host or cells: baculovirus; Tn5 (Trichoplusia ni) or TiniPro insect cells
Outline: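 Luminescent ATP-depletion assay (Kinase-Glo) with 10 nM PI3Kα and 10 μg/mL phosphatidylinositol as lipid substrate at 1 μM ATP. Incubation lasts 60 min at room temperature.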

[2] = biological target: T2, PI3K beta (Homo sapiens, UniProt P42338); experiment: PI3K beta kinase assay (Kinase-Glo luminescence); format: biochemical
T2 construct: for the full-length p110-b subunit are generated and fused by overlapping PCR; p85(iSH2) fusion partner (see partner chain) (N); His tag (C); made in house; host or cells: baculovirus; Tn5 (Trichoplusia ni) or TiniPro insect cells
Outline: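 Enzyme: BV949 p85(iSH2)-Gly linker-p110β FL-His, 25 nM. Substrate: PI 10 μg/mL. ATP: 1 μM, added to start. Buffer: Tris pH 7.5 10 mM, MgCl2 3 mM, NaCl 50 mM, CHAPS 0.05%, DTT 1 mM. RT, 60 min. Readout: Kinase-Glo. IC50 by 4-parameter fit.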

[3] = biological target: T3, mTOR (Homo sapiens, UniProt P42345); experiment: Biochemical assay for m-TOR by TR-FRET; conditions: 8 μM ATP, 400 nM GFP-4EBP1, 0.5 nM mTOR
T3 construct: purchased Invitrogen Corporation (Carlsbad/CA, USA) PV4753
Outline: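 Steps: ATP (8 μM final) plus GFP-4EBP1 (400 nM final) combined with mTOR (0.5 nM final), incubated at rt; buffer HEPES pH 7.5 with 10 mM MnCl2, NaCl, EGTA, DTT. Then stopped with EDTA/Tb3+-anti-p4EBP1 pT46 Ab (0.5 nM). Plates read after 15 min.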

T1 sequence (P42336 with tags, fused parts or gaps limits assumed): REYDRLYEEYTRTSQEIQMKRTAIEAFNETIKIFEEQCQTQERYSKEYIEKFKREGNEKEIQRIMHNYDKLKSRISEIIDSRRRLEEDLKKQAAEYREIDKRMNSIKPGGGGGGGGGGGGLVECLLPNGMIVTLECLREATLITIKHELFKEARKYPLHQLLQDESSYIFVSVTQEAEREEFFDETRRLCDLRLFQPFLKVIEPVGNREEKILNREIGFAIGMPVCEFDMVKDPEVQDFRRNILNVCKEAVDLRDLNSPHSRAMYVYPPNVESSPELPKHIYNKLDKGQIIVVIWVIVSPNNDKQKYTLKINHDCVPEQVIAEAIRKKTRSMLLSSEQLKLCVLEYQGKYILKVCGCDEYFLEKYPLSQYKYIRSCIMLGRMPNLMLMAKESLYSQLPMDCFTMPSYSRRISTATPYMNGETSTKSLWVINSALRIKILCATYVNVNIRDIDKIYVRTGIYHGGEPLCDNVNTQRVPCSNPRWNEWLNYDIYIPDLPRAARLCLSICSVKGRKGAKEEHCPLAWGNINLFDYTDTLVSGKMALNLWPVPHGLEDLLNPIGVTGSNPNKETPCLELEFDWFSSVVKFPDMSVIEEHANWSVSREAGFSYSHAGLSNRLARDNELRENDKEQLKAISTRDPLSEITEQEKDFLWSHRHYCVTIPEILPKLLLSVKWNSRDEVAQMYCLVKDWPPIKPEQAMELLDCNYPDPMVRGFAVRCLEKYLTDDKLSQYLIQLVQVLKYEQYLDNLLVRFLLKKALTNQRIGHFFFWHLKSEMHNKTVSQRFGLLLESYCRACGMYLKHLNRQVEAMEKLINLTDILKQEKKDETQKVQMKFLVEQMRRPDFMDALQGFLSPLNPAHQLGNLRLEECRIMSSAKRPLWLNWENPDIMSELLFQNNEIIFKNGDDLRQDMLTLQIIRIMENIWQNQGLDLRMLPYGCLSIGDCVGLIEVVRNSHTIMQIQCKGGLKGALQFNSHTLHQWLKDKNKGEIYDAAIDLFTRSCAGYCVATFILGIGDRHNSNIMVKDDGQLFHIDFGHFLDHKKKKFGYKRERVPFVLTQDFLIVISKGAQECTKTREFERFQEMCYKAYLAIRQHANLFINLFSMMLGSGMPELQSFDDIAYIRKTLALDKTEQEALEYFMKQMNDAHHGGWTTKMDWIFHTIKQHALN
T3 sequence (P42345 1360-2549 limits assumed): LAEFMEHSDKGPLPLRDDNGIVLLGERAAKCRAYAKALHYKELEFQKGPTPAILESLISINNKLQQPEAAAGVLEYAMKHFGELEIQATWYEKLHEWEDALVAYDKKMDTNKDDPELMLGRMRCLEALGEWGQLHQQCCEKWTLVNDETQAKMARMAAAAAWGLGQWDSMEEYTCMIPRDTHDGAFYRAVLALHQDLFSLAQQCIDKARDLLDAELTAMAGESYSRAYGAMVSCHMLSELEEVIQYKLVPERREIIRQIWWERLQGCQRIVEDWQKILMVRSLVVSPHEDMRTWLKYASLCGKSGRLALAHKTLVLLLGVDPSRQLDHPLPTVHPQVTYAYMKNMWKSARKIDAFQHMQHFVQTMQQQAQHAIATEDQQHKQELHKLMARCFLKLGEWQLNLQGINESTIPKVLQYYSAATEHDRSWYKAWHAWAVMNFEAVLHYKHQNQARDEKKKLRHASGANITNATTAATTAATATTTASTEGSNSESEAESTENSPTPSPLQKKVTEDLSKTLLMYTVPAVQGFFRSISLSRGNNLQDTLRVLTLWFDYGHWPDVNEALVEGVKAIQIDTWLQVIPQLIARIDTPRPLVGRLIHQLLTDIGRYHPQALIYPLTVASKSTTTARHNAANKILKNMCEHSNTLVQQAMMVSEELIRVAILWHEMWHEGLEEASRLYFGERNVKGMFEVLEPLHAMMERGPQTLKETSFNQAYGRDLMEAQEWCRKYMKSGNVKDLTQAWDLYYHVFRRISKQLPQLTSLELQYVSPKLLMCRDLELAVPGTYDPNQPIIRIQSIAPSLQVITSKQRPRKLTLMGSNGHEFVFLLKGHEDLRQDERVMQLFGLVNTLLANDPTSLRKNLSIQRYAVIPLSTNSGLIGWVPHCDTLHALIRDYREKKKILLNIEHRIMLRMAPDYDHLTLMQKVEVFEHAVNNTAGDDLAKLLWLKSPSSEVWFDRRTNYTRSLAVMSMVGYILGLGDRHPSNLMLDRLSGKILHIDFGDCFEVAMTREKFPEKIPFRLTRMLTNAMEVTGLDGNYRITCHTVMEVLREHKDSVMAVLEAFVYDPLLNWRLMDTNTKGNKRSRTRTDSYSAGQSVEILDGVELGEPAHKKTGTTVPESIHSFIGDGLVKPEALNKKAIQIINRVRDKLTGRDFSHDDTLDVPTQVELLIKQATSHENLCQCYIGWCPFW
T2 sequence (P42338 with tags, fused parts or gaps limits assumed): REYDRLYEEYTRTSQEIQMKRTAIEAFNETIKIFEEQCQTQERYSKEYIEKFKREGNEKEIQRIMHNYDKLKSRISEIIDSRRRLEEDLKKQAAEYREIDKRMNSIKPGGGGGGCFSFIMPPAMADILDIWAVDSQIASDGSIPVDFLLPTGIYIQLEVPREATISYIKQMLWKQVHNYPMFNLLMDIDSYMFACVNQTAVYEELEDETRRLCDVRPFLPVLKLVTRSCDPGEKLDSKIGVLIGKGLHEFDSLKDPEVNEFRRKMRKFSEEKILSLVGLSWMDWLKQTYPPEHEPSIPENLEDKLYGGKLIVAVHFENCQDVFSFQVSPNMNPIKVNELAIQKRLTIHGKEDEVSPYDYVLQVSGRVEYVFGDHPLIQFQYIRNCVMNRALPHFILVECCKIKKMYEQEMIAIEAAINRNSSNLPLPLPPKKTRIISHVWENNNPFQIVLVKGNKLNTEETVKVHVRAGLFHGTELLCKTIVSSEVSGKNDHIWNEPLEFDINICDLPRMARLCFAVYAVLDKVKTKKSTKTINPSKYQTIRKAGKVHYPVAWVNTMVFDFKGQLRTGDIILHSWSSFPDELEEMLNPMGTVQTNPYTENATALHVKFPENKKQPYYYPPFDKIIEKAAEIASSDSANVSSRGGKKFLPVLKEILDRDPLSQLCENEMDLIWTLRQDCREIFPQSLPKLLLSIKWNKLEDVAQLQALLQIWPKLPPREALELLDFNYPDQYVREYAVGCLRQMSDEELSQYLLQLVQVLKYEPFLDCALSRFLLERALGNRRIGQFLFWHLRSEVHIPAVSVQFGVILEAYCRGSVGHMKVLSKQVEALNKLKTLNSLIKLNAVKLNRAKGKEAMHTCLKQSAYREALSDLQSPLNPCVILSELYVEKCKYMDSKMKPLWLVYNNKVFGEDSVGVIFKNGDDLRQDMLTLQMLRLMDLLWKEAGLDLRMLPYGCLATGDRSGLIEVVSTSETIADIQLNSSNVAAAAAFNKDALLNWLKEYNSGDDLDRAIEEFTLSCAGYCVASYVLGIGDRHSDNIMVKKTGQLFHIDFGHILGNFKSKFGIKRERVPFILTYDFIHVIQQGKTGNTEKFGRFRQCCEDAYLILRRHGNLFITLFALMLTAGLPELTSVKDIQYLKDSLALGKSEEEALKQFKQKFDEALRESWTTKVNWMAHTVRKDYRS

`Cc1nn(C)cc1-n1c(=O)n(C)c2cnc3ccc(-c4cnc(CO)c(OC(CF)CF)c4)cc3c21` [Example 192, 1-(1,3-Dimethyl-1H-pyrazol-4-yl)-8-[5-(2-fluoro-1-fluoromethyl-ethoxy)-6-hydroxymethyl-pyridin-3-yl]-3-methyl-1,3-dihydro-imidazo[4,5-c]quinolin-2-one] was tested, and the IC50 [1] was under 3 nM, the IC50 [2] was 6 nM and the IC50 [3] was 6 nM.
`CCOc1cc(-c2ccc3ncc4c(c3c2)n(-c2cn(C(C)C)nc2C)c(=O)n4C)cnc1COC` [Example 197.2, 8-(5-Ethoxy-6-methoxymethyl-pyridin-3-yl)-1-(1-isopropyl-3-methyl-1H-pyrazol-4-yl)-3-methyl-1,3-dihydro-imidazo[4,5-c]quinolin-2-one] showed an IC50 [1] of 41 nM, an IC50 [2] of 103 nM and an IC50 [3] of 107 nM.
For `COCc1ccc(-c2ccc3ncc4c(c3c2)n(-c2cn(C)nc2Cl)c(=O)n4C)cn1` [Example 203, 1-(3-Chloro-1-methyl-1H-pyrazol-4-yl)-8-(6-methoxymethyl-pyridin-3-yl)-3-methyl-1,3-dihydro-imidazo[4,5-c]quinolin-2-one], the IC50 [1] was 5 nM, the IC50 [2] was 104 nM and the IC50 [3] was 15 nM.
`CCNc1ncc(-c2ccc3ncc4c(c3c2)n(-c2cn(C)nc2C)c(=O)n4C)cc1COC` [Example 206.1, 1-(1,3-Dimethyl-1H-pyrazol-4-yl)-8-(6-ethylamino-5-methoxymethyl-pyridin-3-yl)-3-methyl-1,3-dihydro-imidazo[4,5-c]quinolin-2-one] gave an IC50 [1] of 26 nM, an IC50 [2] of 38 nM and an IC50 [3] of 34 nM.
`CCc1ncc(-c2ccc3ncc4c(c3c2)n(-c2cn(C)nc2C)c(=O)n4C)cc1N` [Example 208, 8-(5-Amino-6-ethyl-pyridin-3-yl)-1-(1,3-dimethyl-1H-pyrazol-4-yl)-3-methyl-1,3-dihydro-imidazo[4,5-c]quinolin-2-one] was tested, and the IC50 [1] was 15 nM, the IC50 [2] was 76 nM and the IC50 [3] was 7 nM.
`Cn1cc(-n2c(=O)n(C)c3cnc4ccc(-c5cncc(C(C)(C)C#N)c5)cc4c32)c(Cl)n1` [Example 220.3, 2-{5-[1-(3-Chloro-1-methyl-1H-pyrazol-4-yl)-3-methyl-2-oxo-2,3-dihydro-1H-imidazo[4,5-c]quinolin-8-yl]-pyridin-3-yl}-2-methyl-propionitrile] showed an IC50 [1] of 5 nM, an IC50 [2] of 7 nM and an IC50 [3] of 5 nM.
Work on `Cc1nn(C)cc1-n1c(=O)n(C)c2cnc3ccc(-c4cncc(C5(C#N)CCC5)c4)cc3c21` [Example 221.1, 1-{5-[1-(1,3-Dimethyl-1H-pyrazol-4-yl)-3-methyl-2-oxo-2,3-dihydro-1H-imidazo[4,5-c]quinolin-8-yl]-pyridin-3-yl}-cyclobutanecarbonitrile] yielded an IC50 [1] of 14 nM, an IC50 [2] of 23 nM and an IC50 [3] of 32 nM.
`CCN1C(=O)OCc2ncc(-c3ccc4ncc5c(c4c3)n(-c3cn(C)nc3C)c(=O)n5C)cc21` [Example 237, 1-(1,3-Dimethyl-1H-pyrazol-4-yl)-8-(1-ethyl-2-oxo-1,4-dihydro-2H-pyrido[3,2-d][1,3]oxazin-7-yl)-3-methyl-1,3-dihydro-imidazo[4,5-c]quinolin-2-one] gave an IC50 [1] of 8 nM, an IC50 [2] of 7 nM and an IC50 [3] of 70 nM.
In the case of `CCn1c(=O)n(-c2cn(C)nc2C)c2c3cc(-c4cncc(N)c4)ccc3ncc21` [Example 245, 8-(5-Amino-pyridin-3-yl)-1-(1,3-dimethyl-1H-pyrazol-4-yl)-3-ethyl-1,3-dihydro-imidazo[4,5-c]quinolin-2-one], the IC50 [1] is reported as 22 nM, the IC50 [2] is reported as 162 nM and the IC50 [3] is reported as 76 nM.
